# Measured values published in US20210300962A1, “LIPID PRODRUGS OF PREGNANE NEU[…] USES THEREOF” (PureTech LYT, Inc., priority 2018, published 2021).
# How the values were obtained:
# [1] = Rat pharmacokinetic studies: plasma allopregnanolone after oral prodrug or ALLO, and after IV ALLO; assay type: in vivo, male Sprague-Dawley rats
# Protocol: In order to assess the oral bioavailability of test compounds, pharmacokinetic studies were conducted using the following procedure. The day before drug administration, male Sprague-Dawley rats (240-320 g) were anesthetized and the carotid artery was cannulated. The rats were then allowed to regain consciousness and fasted overnight prior to the commencement of experiments with free access to water. The next morning, formulations containing parent compounds or prodrugs were administered via oral gavage or via the jugular vein cannula, and blood samples were collected from the carotid artery cannula from −5 min up to 24 h post dosing. During the blood sample collection period the rats had free access to water but remained fasted for a further 8 h following drug administration. In these allopregnanolone (ALLO) related studies, the blood samples were centrifuged at 4500×g for 5 min to separate plasma. Plasma samples were stored at −20° C. prior to assay by HPLC-MS-MS. The whole blood or plasma samples were assayed for free drug (i.e. non-glyceride associated drug) and were not hydrolized prior to assay (as was the case with the lymph samples).
# FIG. 3 illustrates dose-normalized ALLO plasma concentrations following oral gavage of ALLO related formulations to conscious, carotid artery-cannulated male SD rats. The ALLO oral formulation for each rat contained 2 mg of parent ALLO (i.e., non-prodrug allopregnanolone) suspended in 2 ml of suspending vehicle (0.50 sodium carboxymethyl cellulose, 0.4% Tween 80 and 0.9% NaCl in water). Prodrug formulations for each rat contained 2 mg of the ALLO prodrug dispersed in 40 mg oleic acid, 25 mg Tween 80 and 2 ml PBS. Doses were normalized to a 2 mg/kg equivalent dose of ALLO. Data are shown as mean±SD n≥3 or mean±range when n=2. […] Doses are normalized to a 2 mg/kg equivalent ALLO dose and data are presented as mean±SD when n≥3 or mean±range when n=2.
# Also shown (bottom) is the calculated area under the curve (AUC) over 0-24 h for each of the test compounds as a fraction of the IV-administered allpregnanolone control.
# [2] = Dog pharmacokinetic studies: plasma ALLO after oral ALLO or prodrug, and after IV ALLO; assay type: in vivo, male beagle dogs; details: beagle dogs; for Vd: beagle, iv
# Protocol: For the dog studies, male beagle dogs (body weights between 9.1-11.7 kg) were held in a large-animal research facility prior to the commencement of studies. The dogs were fasted for 12 h up to 30 min prior to drug administration. At 30 minutes prior to drug dosing, each animal received ˜20 g of high fat food (Teklad, TD.07096), then each animal was offered 100 g of beef-flavored canned food. Food was removed immediately prior to dosing. Following the 4 hour sample collection, food was returned (any remaining canned food and 200 g of regular diet). Water was available ad libitum throughout the study for all dogs.
# For oral administration, test compounds were prepared in a suitable formulation such as a long-chain lipid based self-emulsifying drug delivery system (SEDDS) consisting of 30.5% w/w soybean oil, 30.5% w/w Maisine-CC, 31.6% w/w Cremophor EL and 7.4% w/w ethanol. Formulations were filled into hard gelatin capsules. Each animal received 2 size 000 capsules that in total contained ALLO (at 1.5 mg/kg dose) or ALLO prodrug (at 5 mg/kg dose, equivalent to approx. 1.5 mg/kg parent ALLO) in 2 grams of SEDDS formulation. Compound dissolved in the formulation was administrated to the fed dog by placing the capsules as far posterior to the pharynx as possible, closing the mouth and rubbing the throat to stimulate swallowing. Subsequently 10 mL of water was administered orally via a syringe.
# For the IV group, parent ALLO (0.5 mg/kg dose) was administered as an intravenous bolus (formulation contained ALLO at concentration of 1.5 mg/mL) by way of a percutaneous catheter placed in a peripheral vein, followed by a 2 mL flush with normal saline.
# Blood samples (approx. 1.5 mL each) were taken via venepuncture of the cephalic vein 5 min prior to administration up to 48 hours post-dosing. During the blood sample collection period the animals had free access to water but remained fasted for a further 4 hours following drug administration.
# Plasma was separated by centrifugation and aliquots of each plasma sample transferred into eppendorf tubes and stored at −80° C. prior to analysis.
# Doses are normalized to a 1.5 mg/kg equivalent ALLO dose and data are presented as mean±SD (n=4). AUC was calculated using the trapezoidal method in PKsolver—non-compartment model. Statistical significance is defined as α<0.05 when using One-way ANOVA followed by Tukey's test (paired comparison).
# [3] = Non-human primate pharmacokinetic studies: plasma ALLO after oral ALLO or prodrug, and after IV ALLO; assay type: in vivo, male cynomolgus monkeys; details: cynomolgus monkeys; for Vd: iv
# Protocol: For the non-human primate studies, male cynomolgus monkeys were held in a large-animal research facility prior to the commencement of studies. The monkeys were fasted overnight up to 30 min prior to drug administration. Thirty minutes prior to drug administration, each monkey received 30 mL of Ensure Milkshake via oral gavage and was allowed access to a normal ration of primate chow. The primate chow was removed at the time of drug administration and was then returned 4 hours after drug administration. Water was available ad libitum throughout the study for all monkeys.
# Test compounds were prepared in a long-chain lipid-based self-emulsifying drug delivery system (SEDDS) consisting of 30.5% w/w soybean oil, 30.5% w/w Maisine-CC, 31.6% w/w Cremophor EL, and 7.4% w/w ethanol. Parent ALLO (i.e., non-prodrug allopregnanolone) was prepared in a formulation of 20% aqueous hydroxypropyl-p-cyclodextrin. Formulations were filled into hard gelatin capsules. Test compounds were dosed at 5 mg/kg, and parent ALLO was dosed at 1.5 mg/kg. Drug was administered in a single capsule followed by 10 mL of water by oral gavage. For the IV group, parent ALLO (0.5 mg/kg dose) was administered as an intravenous bolus (formulation contained ALLO at a concentration of 1.5 mg/mL) by way of a percutaneous catheter placed in a peripheral vein followed by a 2 mL flush with normal saline prior to removal of the catheter.
# After oral administration, blood samples (approx. 1 mL each) were taken via venipuncture of a peripheral vein 5 min prior to administration up to 48 hours post-dosing. Blood samples were transferred into tubes containing dipotassium EDTA anticoagulant, and the tubes were placed on crushed ice until processing. Within 30 minutes of collection, the blood samples were processed to isolate plasma by centrifuging at 2200×g for 10 minutes at 5° C.±3° C. The plasma samples were stored in polypropylene tubes at −80° C. prior to analysis.
# Doses are normalized to a 1.5 mg/kg equivalent ALLO dose and data are presented as mean±SD (n=6). AUC was calculated using the trapezoidal method in PKsolver—non-compartment model. Statistical significance is defined as α<0.05 when using One-way ANOVA followed by Tukey's test (paired comparison).
smiles,measurement,setting,value
"CC(=O)[C@H]1CC[C@H]2[C@@H]3CC[C@H]4C[C@H](O)CC[C@]4(C)[C@H]3CC[C@]12C [Allopregnanolone, 5α-pregnan-3α-ol-20-one]",AUC,"[1]; male, Sprague-Dawley, plasma, 2 mg/kg, rat, IV, equivalent dose of allopregnanolone, n=1, read-out: AUC after intravenous administration",~1.45 µM·h
same,Cmax,"[1]; plasma Allo after oral gavage to rats, doses normalized to 2 mg/kg equivalent ALLO, mean±SD (n≥3) or mean±range (n=2)",below LOQ)
same,plasma levels after oral administration,"[1]; rat, oral parent allopregnanolone",below the limit of quantification
same,Apparent BA,[2]; IV ALLO (reference),100.0%
same,Vd,"[2]; male, dog, plasma, 0.5 mg/kg, IV ALLO, read-out: VSS (volume of distribution during the steady state phase)",14 ± 1.7 L/kg
same,Vd,"[2]; male, dog, plasma, 0.5 mg/kg, IV ALLO, read-out: VZ (volume of distribution during the elimination phase)",142 ± 29.5 L/kg
same,clearance,"[2]; male, dog, plasma, 0.5 mg/kg, IV ALLO, read-out: Cl (clearance)",160 ± 21.7 mL/min/kg
same,Tmax,"[2]; male, dog, plasma, 0.5 mg/kg, IV bolus ALLO",0 h
same,AUC(0-inf),"[2]; male, dog, plasma, 0.5 mg/kg, IV bolus ALLO, normalized to 1.5 mg/kg",0.498 ± 0.0633 µM·h
same,Cmax,"[2]; male, dog, plasma, 0.5 mg/kg, IV bolus ALLO, normalized to 1.5 mg/kg, mean±SD (n=4), read-out: Cmax (extrapolated C0)",3.5 ± 0.572 µM
same,half-life,"[2]; male, dog, plasma, 0.5 mg/kg, IV bolus ALLO, read-out: T1/2 (elimination phase half-life) (converted)",10.3 ± 0.8 h
same,Apparent BA,[3]; IV ALLO (reference),100%
same,clearance,"[3]; male, cynomolgus monkey, plasma, 0.5 mg/kg, IV ALLO, read-out: Cl (clearance)",42.2 ± 9 mL/min/kg
same,Tmax,"[3]; male, cynomolgus monkey, plasma, 0.5 mg/kg, IV bolus ALLO",4.8 min
same,AUC(0-inf),"[3]; male, cynomolgus monkey, plasma, 0.5 mg/kg, IV bolus ALLO, normalized to 1.5 mg/kg",1.93 ± 0.373 µM·h
same,Cmax,"[3]; male, cynomolgus monkey, plasma, 0.5 mg/kg, IV bolus ALLO, normalized to 1.5 mg/kg, mean±SD (n=6)",4.45 ± 0.73 µM
same,half-life,"[3]; male, cynomolgus monkey, plasma, 0.5 mg/kg, IV bolus ALLO, read-out: T1/2 (terminal phase half-life) (converted)",7.4 ± 1.2 h
same,Vd,"[3]; male, cynomolgus monkey, plasma, 0.5 mg/kg, IV ALLO, read-out: VSS (volume of distribution during the steady state phase)",2.6 ± 0.9 L/kg
same,Vd,"[3]; male, cynomolgus monkey, plasma, 0.5 mg/kg, IV ALLO, read-out: VZ (volume of distribution during the elimination phase)",26.9 ± 6.8 L/kg
